Measurements as given in ChEMBL document CHEMBL2321862, “Development and evaluation of novel phosphotyrosine mimetic inhibitors targeting the Src homology 2 domain of signaling lymphocytic activation molecule (SLAM) associated protein” (J Med Chem, 2013).
Activity calls are given as the source filed them. No rule for the calls is given here.

Experiments:
[1] = molecular target: T1, SH2 domain-containing protein 1A (Homo sapiens) (UniProt O60880); assay: Inhibition of recombinant 6-His-tagged SLAM associated protein SH2 domain (unknown origin) expressed in Escherichia coli BL21(DE3) binding to biotinyl-KKSLTIpYAQVQK-NH2 attached to NeutrAvidin-coated plates using p-nitrophenyl phosphate as substrate at 10 uM after 1 hr relative to control
T1 sequence (whole entry): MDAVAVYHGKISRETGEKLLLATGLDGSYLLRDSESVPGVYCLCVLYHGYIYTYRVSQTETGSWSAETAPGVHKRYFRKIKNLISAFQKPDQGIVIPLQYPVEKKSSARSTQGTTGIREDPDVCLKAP

[2] = molecular target: T1, SH2 domain-containing protein 1A (Homo sapiens); assay: Inhibition of recombinant 6-His-tagged SLAM associated protein SH2 domain (unknown origin) expressed in Escherichia coli BL21(DE3) binding to biotinyl-KKSLTIpYAQVQK-NH2 attached to NeutrAvidin-coated plates using p-nitrophenyl phosphate as substrate at 100 uM after 1 hr

fold change (FC) [1]	inhibition [2]	Compound
1.09	Active	COC(=O)[C@H](Cc1ccc2c(c1)COP(=O)(O)O2)NC(=O)[C@H](Cc1ccc2c(c1)COP(=O)(O)O2)NC(=O)OCC1c2ccccc2-c2ccccc21
0.85	Active	COC(=O)[C@H](Cc1ccc2c(c1)COP(=O)(O)O2)NC(=O)[C@@H](NC(=O)OCC1c2ccccc2-c2ccccc21)[C@@H](C)OC(C)(C)C
0.95	Active	COC(=O)[C@H](Cc1ccc2c(c1)COP(=O)(O)O2)NC(=O)[C@H](CCC(=O)O)NC(=O)OCC1c2ccccc2-c2ccccc21
1.07	Active	NC(=O)[C@H](CCC(=O)NC(c1ccccc1)(c1ccccc1)c1ccccc1)NC(=O)[C@H](Cc1ccc2c(c1)COP(=O)(O)O2)NC(=O)OCC1c2ccccc2-c2ccccc21
1.24	Active	CC(C)(C)Oc1ccc(C[C@H](NC(=O)[C@H](Cc2ccc3c(c2)COP(=O)(O)O3)NC(=O)OCC2c3ccccc3-c3ccccc32)C(N)=O)cc1
0.91	Active	CSCC[C@H](NC(=O)[C@H](Cc1ccc2c(c1)COP(=O)(O)O2)NC(=O)OCC1c2ccccc2-c2ccccc21)C(N)=O
1.05	Active	COC(=O)[C@H](Cc1ccc2c(c1)COP(=O)(O)O2)NC(=O)[C@H](Cc1ccc(O)cc1)NC(=O)OCC1c2ccccc2-c2ccccc21
1.22	Active	NCCCC[C@H](NC(=O)[C@H](Cc1ccc2c(c1)COP(=O)(O)O2)NC(=O)OCC1c2ccccc2-c2ccccc21)C(N)=O
0.99	Active	CC(C)C[C@H](NC(=O)[C@H](Cc1ccc2c(c1)COP(=O)(O)O2)NC(=O)OCC1c2ccccc2-c2ccccc21)C(N)=O
1.06	Active	COC(=O)[C@H](Cc1ccc2c(c1)COP(=O)(O)O2)NC(=O)[C@H](Cc1cn(C(c2ccccc2)(c2ccccc2)c2ccccc2)cn1)NC(=O)OCC1c2ccccc2-c2ccccc21
0.81	Active	COC(=O)[C@H](Cc1ccc2c(c1)COP(=O)(O)O2)NC(=O)[C@@H]1CCCN1C(=O)OCC1c2ccccc2-c2ccccc21
0.8	Active	COC(=O)[C@H](Cc1ccc2c(c1)COP(=O)(O)O2)NC(=O)[C@H](CC(N)=O)NC(=O)OCC1c2ccccc2-c2ccccc21
1.27	Active	CC(C)(C)OC[C@H](NC(=O)[C@H](Cc1ccc2c(c1)COP(=O)(O)O2)NC(=O)OCC1c2ccccc2-c2ccccc21)C(N)=O
0.82	Active	COC(=O)[C@H](Cc1ccc2c(c1)COP(=O)(O)O2)NC(=O)[C@@H](NC(=O)OCC1c2ccccc2-c2ccccc21)[C@@H](C)O
0.9	Active	NC(=O)[C@H](CO)NC(=O)[C@H](Cc1ccc2c(c1)COP(=O)(O)O2)NC(=O)OCC1c2ccccc2-c2ccccc21
0.89	Active	COC(=O)[C@H](Cc1ccc2c(c1)COP(=O)(O)O2)NC(=O)[C@H](C)NC(=O)OCC1c2ccccc2-c2ccccc21
0.85	Active	COC(=O)[C@H](Cc1ccc2c(c1)COP(=O)(O)O2)NC(=O)[C@H](CCSC)NC(=O)OCC1c2ccccc2-c2ccccc21
0.89	Active	COC(=O)[C@H](Cc1ccc2c(c1)COP(=O)(O)O2)NC(=O)[C@H](Cc1c[nH]cn1)NC(=O)OCC1c2ccccc2-c2ccccc21
1.51	Active	CC[C@H](C)[C@H](NC(=O)OCC1c2ccccc2-c2ccccc21)C(=O)N[C@@H](Cc1ccc2c(c1)COP(=O)(O)O2)C(=O)OC
1.24	Active	CC(C)(C)OC(=O)C[C@H](NC(=O)[C@H](Cc1ccc2c(c1)COP(=O)(O)O2)NC(=O)OCC1c2ccccc2-c2ccccc21)C(N)=O
1.22	Active	C[C@@H](O)[C@H](NC(=O)[C@H](Cc1ccc2c(c1)COP(=O)(O)O2)NC(=O)OCC1c2ccccc2-c2ccccc21)C(N)=O
1.13	Active	C[C@@H](OC(C)(C)C)[C@H](NC(=O)[C@H](Cc1ccc2c(c1)COP(=O)(O)O2)NC(=O)OCC1c2ccccc2-c2ccccc21)C(N)=O
1.05	Active	COC(=O)[C@H](Cc1ccc2c(c1)COP(=O)(O)O2)NC(=O)[C@H](CCCCN)NC(=O)OCC1c2ccccc2-c2ccccc21
0.84	Active	COC(=O)[C@H](Cc1ccc2c(c1)COP(=O)(O)O2)NC(=O)[C@H](Cc1ccccc1)NC(=O)OCC1c2ccccc2-c2ccccc21

fold change (FC) [1]	inhibition [2]	Compound
1.09	Active	C[C@H](NC(=O)[C@H](Cc1ccc2c(c1)COP(=O)(O)O2)NC(=O)OCC1c2ccccc2-c2ccccc21)C(N)=O
1.2	Active	COC(=O)[C@H](Cc1ccc2c(c1)COP(=O)(O)O2)NC(=O)[C@H](Cc1cn(C(=O)OC(C)(C)C)c2ccccc12)NC(=O)OCC1c2ccccc2-c2ccccc21
1.31	Active	NC(=O)[C@H](CCC(=O)O)NC(=O)[C@H](Cc1ccc2c(c1)COP(=O)(O)O2)NC(=O)OCC1c2ccccc2-c2ccccc21
1.09	Active	COC(=O)[C@H](Cc1ccc2c(c1)COP(=O)(O)O2)NC(=O)[C@H](CCC(N)=O)NC(=O)OCC1c2ccccc2-c2ccccc21
1.07	Active	NC(=O)CNC(=O)[C@H](Cc1ccc2c(c1)COP(=O)(O)O2)NC(=O)OCC1c2ccccc2-c2ccccc21
1.1	Active	COC(=O)[C@H](Cc1ccc2c(c1)COP(=O)(O)O2)NC(=O)[C@H](CCC(=O)OC(C)(C)C)NC(=O)OCC1c2ccccc2-c2ccccc21
1.29	Active	COC(=O)[C@H](Cc1ccc2c(c1)COP(=O)(O)O2)NC(=O)[C@@H](NC(=O)OCC1c2ccccc2-c2ccccc21)C(C)C
1.11	Active	COC(=O)[C@H](Cc1ccc2c(c1)COP(=O)(O)O2)NC(=O)[C@H](CCC(=O)NC(c1ccccc1)(c1ccccc1)c1ccccc1)NC(=O)OCC1c2ccccc2-c2ccccc21
1.36	Active	NC(=O)[C@H](Cc1c[nH]c2ccccc12)NC(=O)[C@H](Cc1ccc2c(c1)COP(=O)(O)O2)NC(=O)OCC1c2ccccc2-c2ccccc21
1.33	Active	CC(C)(C)OC(=O)n1cc(C[C@H](NC(=O)[C@H](Cc2ccc3c(c2)COP(=O)(O)O3)NC(=O)OCC2c3ccccc3-c3ccccc32)C(N)=O)c2ccccc21
0.95	Active	NC(=O)[C@H](Cc1ccc(O)cc1)NC(=O)[C@H](Cc1ccc2c(c1)COP(=O)(O)O2)NC(=O)OCC1c2ccccc2-c2ccccc21
1.13	Active	COC(=O)[C@H](Cc1ccc2c(c1)COP(=O)(O)O2)NC(=O)[C@H](CO)NC(=O)OCC1c2ccccc2-c2ccccc21
0.96	Active	COC(=O)[C@H](Cc1ccc2c(c1)COP(=O)(O)O2)NC(=O)[C@H](Cc1ccc(OC(C)(C)C)cc1)NC(=O)OCC1c2ccccc2-c2ccccc21
1.05	Active	CC[C@H](C)[C@H](NC(=O)[C@H](Cc1ccc2c(c1)COP(=O)(O)O2)NC(=O)OCC1c2ccccc2-c2ccccc21)C(N)=O
0.94	Active	N=C(N)NCCC[C@H](NC(=O)[C@H](Cc1ccc2c(c1)COP(=O)(O)O2)NC(=O)OCC1c2ccccc2-c2ccccc21)C(N)=O
0.75	Active	COC(=O)[C@H](Cc1ccc2c(c1)COP(=O)(O)O2)NC(=O)[C@H](CCCNC(=N)NS(=O)(=O)c1c(C)c(C)c2c(c1C)CC(C)(C)O2)NC(=O)OCC1c2ccccc2-c2ccccc21
0.77	Active	COC(=O)[C@H](Cc1ccc2c(c1)COP(=O)(O)O2)NC(=O)CNC(=O)OCC1c2ccccc2-c2ccccc21
1.03	Active	NC(=O)[C@H](CC(=O)NC(c1ccccc1)(c1ccccc1)c1ccccc1)NC(=O)[C@H](Cc1ccc2c(c1)COP(=O)(O)O2)NC(=O)OCC1c2ccccc2-c2ccccc21
0.99	Active	NC(=O)CC[C@H](NC(=O)[C@H](Cc1ccc2c(c1)COP(=O)(O)O2)NC(=O)OCC1c2ccccc2-c2ccccc21)C(N)=O
1.17	Active	COC(=O)[C@H](Cc1ccc2c(c1)COP(=O)(O)O2)NC(=O)[C@H](CC(C)C)NC(=O)OCC1c2ccccc2-c2ccccc21
1.06	Active	COC(=O)[C@H](Cc1ccc2c(c1)COP(=O)(O)O2)NC(=O)[C@H](CC(=O)NC(c1ccccc1)(c1ccccc1)c1ccccc1)NC(=O)OCC1c2ccccc2-c2ccccc21
1	Active	CC(C)[C@H](NC(=O)[C@H](Cc1ccc2c(c1)COP(=O)(O)O2)NC(=O)OCC1c2ccccc2-c2ccccc21)C(N)=O
0.84	Active	COC(=O)[C@H](Cc1ccc2c(c1)COP(=O)(O)O2)NC(=O)[C@H](CC(=O)O)NC(=O)OCC1c2ccccc2-c2ccccc21
0.94	Active	Cc1c(C)c(S(=O)(=O)NC(=N)NCCC[C@H](NC(=O)[C@H](Cc2ccc3c(c2)COP(=O)(O)O3)NC(=O)OCC2c3ccccc3-c3ccccc32)C(N)=O)c(C)c2c1OC(C)(C)C2
